Measured values as given in US6683084B1, “Use of 2-amino purine derivatives for the treatment and prophylaxis of human herpes virus 6 infections” (Novartis International Pharmaceutical Ltd., priority 1993, dated 2004).

Tested on: HHV-6 strain 7.29
Experiment: Evaluation of PCV against HHV-6 in human cord blood cells (% infected cells by immunofluorescence)
Type: cell-based, human herpesvirus 6
Experimental: An assay method involving the inhibition of a cytopathic effect in human cord blood cells is conducted at a dose range of 0.01 μM-100 μM. The general procedure is as described in Chapter 23 of ‘Human Herpesvirus; Epidemiology, Molecular Biology and Clinical Pathology—Conference Proceedings, Ablashi D. V. (Ed).
^aDilutions of the compounds were added 1 hr after viral inoculation of human cord blood. The % infected cells was measured by anti-complement immunofluorescence (ACIF). All numbers are averages of results of cord blood from 3 donors and triplicate readings were performed on each sample. Each reading represents actual counting of 3 fields.
Human mononuclear cells were isolated from umbilical cord blood and inoculated in triplicate with the test virus. One hour later, duplicate dilutions of the compound were added, resulting in 0, 5, 10, 50, or 100 μM final concentrations. After 3-6 days, cellls were removed and tested for the presence of virus by indirect immunofluorescence (IFA) using type specific monoclonal antibodies. Three fields of 100 cells each were read from each sample.

SMILES: Nc1nc2c(ncn2CCC(CO)CO)c(=O)[nH]1 [PCV, penciclovir]
- inhibition at 5 µM (Human betaherpesvirus 6, 144 h, PCV 5 μM, Day 6, read-out: % Inhib Day 6): -5%
- inhibition at 10 µM (Human betaherpesvirus 6, 144 h, PCV 10 μM, Day 6, read-out: % Inhib Day 6): -7%
- inhibition at 50 µM (Human betaherpesvirus 6, 144 h, PCV 50 μM, Day 6, read-out: % Inhib Day 6): 12%
- inhibition at 100 µM (Human betaherpesvirus 6, 144 h, PCV 100 μM, Day 6, read-out: % Inhib Day 6): 29%
- % Inf Day 4 (PCV 5 μM, Day 4, compound added 1 hr after viral inoculation): 19%
- % Inf Day 6 (PCV 5 μM): 42%
- % Inf Day 4 (PCV 10 μM, Day 4): 20%
- % Inf Day 6 (PCV 10 μM): 43%
- % Inf Day 6 (PCV 50 μM): 35%
- % Inf Day 6 (PCV 100 μM): 38%
